Data on 20 compounds can be found in ChEMBL document CHEMBL4257573, “Synthesis, modification, and cytotoxic evaluation of 2,3-secotriterpenic β-ketoesters” (Bioorg Med Chem Lett, 2018).

Bounds are passed on as bounds.

In one series the test system is HEp-2. The experiment in a line: Cytotoxicity against human Hep2 cells assessed as reduction in cell viability after 72 hrs by MTT assay. Format: functional, cell-based. Conditions: HEp-2, 72 h.
The next series concerns HCT-116. In words: Cytotoxicity against human HCT116 cells assessed as reduction in cell viability after 72 hrs by MTT assay. It is filed as functional, cell-based. Particulars: HCT-116, 72 h.
The subject of the next series is A549. The experiment in a line: Cytotoxicity against human A549 cells assessed as reduction in cell viability after 72 hrs by MTT assay. Format: functional, cell-based. Particulars: A549, 72 h. Background: Tetrazolium dyes change colour on reduction, which living cells bring about.
The subject of another series is MCF7. In words: Cytotoxicity against human MCF7 cells assessed as reduction in cell viability after 72 hrs by MTT assay. It is filed as functional, cell-based. Conditions: MCF7, 72 h.
The subject of the next series is RD. The experiment in a line: Cytotoxicity against human RD cells assessed as reduction in cell viability after 72 hrs by MTT assay. Format: functional, cell-based.
Series [1] is described as follows: Cytotoxicity against human MS cells assessed as reduction in cell viability after 72 hrs by MTT assay. It is filed as functional, cell-based.
Series [2] is described as follows: Selectivity index, ratio of IC50 for HEK293 cells to IC50 for human Hep2 cells. It is filed as toxicity. Particulars: HEK293 cells versus Hep2 cells, read-out: Ratio IC50.
Series [3] is described as follows: Selectivity index, ratio of IC50 for HEK293 cells to IC50 for human MS cells. Format: toxicity. Particulars: HEK293 cells versus MS cells, read-out: Ratio IC50.
In another series the test system is HEK293. The experiment in a line: Cytotoxicity against HEK293 cells assessed as reduction in cell viability after 72 hrs by MTT assay. Format: cell-based. Particulars: Homo sapiens, HEK293, 72 h.
A short description of series [4]: Selectivity index, ratio of IC50 for HEK293 cells to IC50 for human MCF7 cells. Format: toxicity. Conditions: HEK293 cells versus MCF7 cells, read-out: Ratio IC50.

As usually defined, the IC50 is the concentration needed to halve the response being measured. Take `CC1(C)CC[C@]23CC[C@]4(C)[C@H](CC[C@@H]5[C@@](C)(CC#N)[C@H](C(C)(C)C(=O)COC(=O)c6cccnc6)CC[C@]54C)[C@H]2[C@H]1OC3`: the half-inhibitory concentration (IC50) (in the series with HEp-2; with HCT-116; in the series on A549; in the series on MCF7; in the series on RD; in series [1]) was above 100 µM in each case.
With `CC1(C)CC[C@]23CC[C@]4(C)[C@H](CC[C@@H]5[C@@](C)(CC#N)[C@H](C(C)(C)C(=O)CO)CC[C@]54C)[C@H]2[C@H]1OC3`, the IC50 (in the series on HEp-2; in the series with HCT-116; in the series on A549; with MCF7; in the series with RD; in series [1]) was above 100 µM throughout.
As to `CC1(C)CC[C@]23CC[C@]4(C)[C@H](CC[C@@H]5[C@@](C)(CC#N)[C@H](C(C)(C)C(=O)C(Cl)Cl)CC[C@]54C)[C@H]2[C@H]1OC3`, the IC50 with HEp-2 is above 100 µM; with HCT-116, 13.2 µM; with A549 it was 35.2 µM; in the series on MCF7, 10.8 µM; in the series on RD, 11.3 µM; in [1], 24.7 µM.
As for `CC(=O)OCC(=O)C(C)(C)[C@@H]1CC[C@]2(C)[C@H](CC[C@@H]3[C@H]4[C@H]5OC[C@@]4(CCC5(C)C)CC[C@]32C)[C@@]1(C)CC#N`, the IC50 (in the series with HEp-2; in the series with HCT-116; in the series with A549; in the series with MCF7; in the series on RD; in [1]) was above 100 µM throughout.
Consider `CC1(C)CC[C@]23CC[C@]4(C)[C@H](CC[C@@H]5[C@@](C)(CC#N)[C@H](C(C)(C)C(=O)COC=O)CC[C@]54C)[C@H]2[C@H]1OC3`, for which the IC50 (in the series with HEp-2; in the series on HCT-116; in the series with A549; with MCF7; in the series on RD; in series [1]) was above 100 µM each time.
With `C=C(C=O)[C@@H]1CC[C@]2(C(=O)OC)CC[C@]3(C)[C@H](CC[C@@H]4[C@@](C)(CC#N)[C@H](C(C)(C)C(=O)COC(=O)/C=C/c5ccccc5)CC[C@]43C)[C@@H]12`, the selectivity ratio in [2], in series [3] and in [4] was 1.84 to 50.3 in each case. In addition, the IC50 in the series with HEp-2 is 84.8 µM; in the series with HEK293, 184 µM; in the series on HCT-116, 13.2 µM; with A549, above 100 µM; in the series with MCF7 it was 8.54 µM; in the series on RD, 3.65 µM. The IC50 in series [1] was found to be 22 µM.
With `C=C(CO)[C@@H]1CC[C@]2(C(=O)OC)CC[C@]3(C)[C@H](CC[C@@H]4[C@@](C)(CC#N)[C@H](C(C)(C)C(O)CO)CC[C@]43C)[C@@H]12` (some centres not stated), the IC50 in the series with HEp-2 is above 100 µM; with HCT-116, above 100 µM; in the series on A549, above 100 µM; in the series with MCF7 it was above 100 µM; with RD, 72.4 µM; in [1], above 100 µM.
With `C=C(C=O)[C@@H]1CC[C@]2(C(=O)OC)CC[C@]3(C)[C@H](CC[C@@H]4[C@]5(C)[C@@H](CC[C@]43C)C(C)(C)[C@@](O)(CO)[C@H]5C#N)[C@@H]12`, the selectivity ratio in [2], in [3] and in series [4] was 4.08 to 20.2 each time. Further, the IC50 in the series with HEp-2 stood at 23.7 µM; with HEK293, 118 µM; in the series with HCT-116 it was 9.32 µM; in the series with A549 it was 28.8 µM; in the series with MCF7 it was 8.39 µM; in the series on RD, 5.83 µM. The IC50 in [1] is 12.3 µM.
Take `CC1(C)CC[C@]23CC[C@]4(C)[C@H](CC[C@@H]5[C@@](C)(CC#N)[C@H](C(C)(C)C(=O)COC(=O)/C=C/c6ccccc6)CC[C@]54C)[C@H]2[C@H]1OC3`: the IC50 in the series on HEp-2 was above 100 µM; with HCT-116, 28.5 µM; in the series with A549 it was above 100 µM; in the series on MCF7 it was above 100 µM; with RD it was 44.3 µM; in series [1], above 100 µM.
Take `CC1(C)CC[C@]23CC[C@]4(C)[C@H](CC[C@@H]5[C@@](C)(CC#N)[C@H](C(C)(C)C(=O)[C@@H](Cl)Br)CC[C@]54C)[C@H]2[C@H]1OC3`: the IC50 was above 100 µM with HEp-2; 13.2 µM with HCT-116; 35.2 µM in the series with A549; 10.8 µM in the series with MCF7; 11.3 µM with RD; 24.7 µM in series [1].
Consider `CC1(C)CC[C@]23CC[C@]4(C)[C@H](CC[C@@H]5[C@@](C)(CC#N)[C@H](C(C)(C)C(=O)COC(=O)CCC(=O)O)CC[C@]54C)[C@H]2[C@H]1OC3`, for which the IC50 (in the series on HEp-2; with HCT-116; in the series on A549; in the series with MCF7; in the series with RD; in series [1]) was above 100 µM in each case.
`CC1(C)CC[C@]23CC[C@]4(C)[C@H](CC[C@@H]5[C@@](C)(CC#N)[C@H](C(C)(C)C(O)CO)CC[C@]54C)[C@H]2[C@H]1OC3` (some centres not stated): the IC50 with HEp-2 is above 100 µM; in the series on HCT-116 it was 81.9 µM; in the series with A549, above 100 µM; in the series on MCF7 it was 59.8 µM; with RD, above 100 µM; in series [1], 38 µM.
`CC1(C)CC[C@]23CC[C@]4(C)[C@H](CC[C@@H]5[C@@](C)(CC#N)[C@H](C(C)(C)C(=O)COC(=O)CCCCCCCCC(=O)O)CC[C@]54C)[C@H]2[C@H]1OC3`: the IC50 (in the series on HEp-2; with HCT-116; with A549; in the series on MCF7; in the series with RD; in series [1]) was above 100 µM throughout.
For the compound `C=C(C=O)[C@@H]1CC[C@]2(C(=O)OC)CC[C@]3(C)[C@H](CC[C@@H]4[C@@](C)(CC#N)[C@H](C(C)(C)C(=O)COC(=O)c5ccccc5OC(C)=O)CC[C@]43C)[C@@H]12`, the selectivity ratio in series [2], in [3] and in series [4] was 1.08 to 22.5 in each case. The IC50 in the series with HEp-2 was 36.2 µM; in the series with HEK293, 108 µM; in the series with HCT-116 it was 4.91 µM; in the series on A549 it was 22.8 µM; in the series on MCF7, above 100 µM; in the series with RD, 4.81 µM. Further, in [1], the IC50 was determined as 12.8 µM.
On to `CC(=O)Oc1ccccc1C(=O)OCC(=O)C(C)(C)[C@@H]1CC[C@]2(C)[C@H](CC[C@@H]3[C@H]4[C@H]5OC[C@@]4(CCC5(C)C)CC[C@]32C)[C@@]1(C)CC#N`, for which the IC50 (in the series on HEp-2; in the series on HCT-116; in the series on A549; with MCF7; in the series with RD; in series [1]) was above 100 µM each time.
For `C=C(C=O)[C@@H]1CC[C@]2(C(=O)OC)CC[C@]3(C)[C@H](CC[C@@H]4[C@@](C)(CC#N)[C@H](C(C)(C)C(=O)COC=O)CC[C@]43C)[C@@H]12`, the IC50 in the series with HEp-2 was 78.9 µM; in the series with HCT-116, 79.8 µM; in the series with A549, above 100 µM; in the series with MCF7, 30 µM; in the series on RD, 49.4 µM; in series [1], 49.1 µM.
Consider `C=C(CO)[C@@H]1CC[C@]2(C(=O)OC)CC[C@]3(C)[C@H](CC[C@@H]4[C@@](C)(CC#N)[C@H](C(C)(C)C(=O)COC(C)=O)CC[C@]43C)[C@@H]12`, for which the IC50 worked out at 81.2 µM in the series with HEp-2; 43.7 µM in the series with HCT-116; 50.7 µM with A549; 10.3 µM in the series on MCF7; 33.4 µM with RD; 24 µM in series [1].
Turning to `CC(C)(CC(=O)OCC(=O)C(C)(C)[C@@H]1CC[C@]2(C)[C@H](CC[C@@H]3[C@H]4[C@H]5OC[C@@]4(CCC5(C)C)CC[C@]32C)[C@@]1(C)CC#N)C(=O)O`, the IC50 (in the series on HEp-2; with HCT-116; in the series on A549; in the series on MCF7; in the series on RD; in [1]) was above 100 µM in each case.
For `CC1(C)CC[C@]23CC[C@]4(C)[C@H](CC[C@@H]5[C@@](C)(CC#N)[C@H](C(C)(C)C(=O)COC(=O)CC(=O)CC(=O)O)CC[C@]54C)[C@H]2[C@H]1OC3`, the IC50 was above 100 µM with HEp-2; above 100 µM in the series with HCT-116; 69.5 µM in the series with A549; above 100 µM with MCF7; 50.1 µM in the series with RD; 87.5 µM in series [1].
As for `CC1(C)CC[C@]23CC[C@]4(C)[C@H](CC[C@@H]5[C@]6(C)[C@@H](CC[C@]54C)C(C)(C)[C@@](O)(CO)[C@H]6C#N)[C@H]2[C@H]1OC3`, the IC50 (in the series on HEp-2; in the series with HCT-116; in the series with A549; in the series with MCF7; in the series with RD; in [1]) was above 100 µM each time.
